In patent US20170355705A1 (GlaxoSmithKline Intellectual Property (No.2) Limited, priority 2014, published 2017):

Biological target: T1, SIRT1 (Homo sapiens, UniProt Q96EB6)
T1 sequence (Q96EB6 1-747): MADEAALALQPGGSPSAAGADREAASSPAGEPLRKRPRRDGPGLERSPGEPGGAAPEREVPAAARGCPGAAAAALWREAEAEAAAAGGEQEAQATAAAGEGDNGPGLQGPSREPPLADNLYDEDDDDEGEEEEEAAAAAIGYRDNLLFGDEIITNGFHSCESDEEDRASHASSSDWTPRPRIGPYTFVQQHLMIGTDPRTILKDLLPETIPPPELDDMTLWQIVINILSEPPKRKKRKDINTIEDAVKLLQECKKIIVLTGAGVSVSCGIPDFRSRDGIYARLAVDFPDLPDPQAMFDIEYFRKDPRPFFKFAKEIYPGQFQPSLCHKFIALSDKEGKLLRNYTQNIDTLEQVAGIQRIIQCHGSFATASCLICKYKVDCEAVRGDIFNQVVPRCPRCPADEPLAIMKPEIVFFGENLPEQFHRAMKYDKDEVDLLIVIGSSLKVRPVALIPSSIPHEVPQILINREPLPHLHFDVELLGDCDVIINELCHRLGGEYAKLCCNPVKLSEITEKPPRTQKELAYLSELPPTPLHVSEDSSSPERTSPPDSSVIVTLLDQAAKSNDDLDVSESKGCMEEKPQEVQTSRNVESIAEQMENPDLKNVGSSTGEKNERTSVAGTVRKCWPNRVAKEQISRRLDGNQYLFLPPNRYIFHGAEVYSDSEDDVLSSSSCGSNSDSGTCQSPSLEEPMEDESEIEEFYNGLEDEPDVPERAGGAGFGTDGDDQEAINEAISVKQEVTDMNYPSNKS
Assay: Trp mass spectrometry assay of SIRT1 activity (EC1.5, percent maximum activation)
Type: biochemical
Conditions: Trp mass spectrometry assay; for TRP Activity (EC1.5): EC1.5 = concentration giving 150% activation of SIRT1
Procedure, shortened: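 Steps: recombinant SIRT1 (N-His, bacterial) and NAD with p53-derived, norleucine-substituted 5TMR peptide; add compound at several concentrations; incubate 25 min; stop with 10% formic acid; freeze; quantify OAADPR by mass spec against control lacking compound.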

[1] = percent maximum activation of SIRT1
[2] = 0.5 μM peptide substrate, 120 μM βNAD+, 10 nM SIRT1, 25 minutes at 25° C.

SMILES | TRP Activity (EC1.5) | TRP MAX RESP (percent maximum fold activation) [1] | TRP Activity (EC1.5, concentration of test compound that results in 150% activation of SIRT1) [2] | TRP MAX RESP (percent maximum fold activation) [2]
Cc1cc(-c2nc3c(cc2Cl)N2CC[C@@H](C2)N3C(=O)Nc2ccnc(OC[C@@H](O)CO)n2)ccn1 [Example 94, (4S)-8-chloro-N-(2-((S)-2,3-dihydroxypropoxy)pyrimidin-4-yl)-7-(2-methylpyridin-4-yl)-3,4-dihydro-1,4-methanopyrido[2,3-b][1,4]diazepine-5(2H)-carboxamide] | C (EC1.5>25 μM) | B (Fold Activation <150%) | – | –
Cc1cc(-c2ccc3c(n2)N(C(=O)Nc2ccc4c(c2)OCCCO4)[C@H]2CCN3C2)ccn1 [Example 126, (4S)-N-(3,4-dihydro-2H-benzo[b][1,4]dioxepin-7-yl)-7-(2-methylpyridin-4-yl)-3,4-dihydro-1,4-methanopyrido[2,3-b][1,4]diazepine-5(2H)-carboxamide] | A (EC1.5<1 μM) | A (Fold activation ≧150%) | – | –
Cc1cc(-c2nc3c(cc2Cl)N2CC[C@@H](C2)N3C(=O)Nc2cc(OC[C@H](O)CO)ncn2)ccn1 [Example 95, (4S)-8-chloro-N-(6-((R)-2,3-dihydroxypropoxy)pyrimidin-4-yl)-7-(2-methylpyridin-4-yl)-3,4-dihydro-1,4-methanopyrido[2,3-b][1,4]diazepine-5(2H)-carboxamide] | C (EC1.5>25 μM) | B (Fold Activation <150%) | – | –
CCc1cc(-c2ccc3c(n2)N(C(=O)Nc2cnccn2)[C@H]2CCN3C2)ccn1 [Example 139, (4S)-7-(2-ethylpyridin-4-yl)-N-(pyrazin-2-yl)-3,4-dihydro-1,4-methanopyrido[2,3-b][1,4]diazepine-5(2H)-carboxamide] | A (EC1.5<1 μM) | A (Fold activation ≧150%) | – | –
Cc1cc(-c2nc3c(cc2Cl)N2CC[C@@H](C2)N3C(=O)Nc2cc(OC[C@H](O)CO)ccn2)ccn1 [Example 38, (4S)-8-chloro-N-(4-((R)-2,3-dihydroxypropoxy)pyridin-2-yl)-7-(2-methylpyridin-4-yl)-3,4-dihydro-1,4-methanopyrido[2,3-b][1,4]diazepine-5(2H)-carboxamide] | B (EC1.5 1-25 μM) | A (Fold activation ≧150%) | – | –
O=C(Nc1cc(OC[C@@H](O)CO)ncn1)N1c2nc(-c3cccc(C(F)(F)F)c3)c(Cl)cc2N2CC[C@H]1C2 [Example 75, (4S)-8-chloro-N-(6-((S)-2,3-dihydroxypropoxy)pyrimidin-4-yl)-7-(3-(trifluoromethyl)phenyl)-3,4-dihydro-1,4-methanopyrido[2,3-b][1,4]diazepine-5(2H)-carboxamide] | B (EC1.5 1-25 μM) | A (Fold activation ≧150%) | – | –
Cc1cc(-c2ccc3c(n2)N(C(=O)N2CCC(C)C2)[C@H]2CCN3C2)ccn1 (single isomer, unassigned) [Example 193] | C (EC1.5>25 μM) | B (Fold Activation <150%) | – | –
Cc1cc(-c2ccc3c(n2)N(C(=O)Nc2c[nH]nn2)[C@H]2CCN3C2)ccn1 [Example 167, (4S)-7-(2-methylpyridin-4-yl)-N-(1H-1,2,3-triazol-4-yl)-3,4-dihydro-1,4-methanopyrido[2,3-b][1,4]diazepine-5(2H)-carboxamide] | B (EC1.5 1-25 μM) | A (Fold activation ≧150%) | – | –
O=C(Nc1cncc(OC[C@H](O)CO)c1)N1c2nc(-c3cccc(C(F)(F)F)c3)c(Cl)cc2N2CC[C@H]1C2 [Example 23, (4S)-8-chloro-N-(5-((R)-2,3-dihydroxypropoxy)pyridin-3-yl)-7-(3-(trifluoromethyl)phenyl)-3,4-dihydro-1,4-methanopyrido[2,3-b][1,4]diazepine-5(2H)-carboxamide] | A (EC1.5<1 μM) | A (Fold activation ≧150%) | – | –
O=C(Nc1cncc(OC[C@@H](O)CO)n1)N1c2nc(-c3cccc(C(F)(F)F)c3)ccc2N2CC[C@H]1C2 [Example 123, (4S)-N-(6-((S)-2,3-dihydroxypropoxy)pyrazin-2-yl)-7-(3-(trifluoromethyl)phenyl)-3,4-dihydro-1,4-methanopyrido[2,3-b][1,4]diazepine-5(2H)-carboxamide] | A (EC1.5<1 μM) | A (Fold activation ≧150%) | – | –
Cc1cc(-c2ccc3c(n2)N(C(=O)Nc2cnc(C4CC4)cn2)[C@H]2CCN3C2)ccn1 [Example 164, (4S)-N-(5-cyclopropylpyrazin-2-yl)-7-(2-methylpyridin-4-yl)-3,4-dihydro-1,4-methanopyrido[2,3-b][1,4]diazepine-5(2H)-carboxamide] | B (EC1.5 1-25 μM) | A (Fold activation ≧150%) | – | –
Cc1cc2c(nc1-c1cccc(C(F)F)c1)N(C(=O)Nc1ccnc(OC[C@@H](O)CO)c1)[C@H]1CCN2C1 [Example 89, (4S)-7-(3-(difluoromethyl)phenyl)-N-(2-((S)-2,3-dihydroxypropoxy)pyridin-4-yl)-8-methyl-3,4-dihydro-1,4-methanopyrido[2,3-b][1,4]diazepine-5(2H)-carboxamide] | A (EC1.5<1 μM) | A (Fold activation ≧150%) | – | –
O=C(Nc1cnccn1)N1c2nc(-c3ccnc(C(F)F)c3)ccc2N2CC[C@H]1C2 [Example 216, (4S)-7-(2-(difluoromethyl)pyridin-4-yl)-N-(pyrazin-2-yl)-3,4-dihydro-1,4-methanopyrido[2,3-b][1,4]diazepine-5(2H)-carboxamide] | – | – | A (EC1.5<1 μM) | A (Fold activation ≧150%)
COC(=O)c1cc(-c2ccc3c(n2)N(C(=O)Nc2cnccn2)[C@H]2CCN3C2)ccn1 [Example 215, methyl 4-((4S)-5-(pyrazin-2-ylcarbamoyl)-2,3,4,5-tetrahydro-1,4-methanopyrido[2,3-b][1,4]diazepin-7-yl)picolinate] | – | – | B (EC1.5 1-25 μM) | A (Fold activation ≧150%)
O=C(Nc1cccnc1)N1c2nc(-c3ccc(C(F)(F)F)nc3)ccc2N2CC[C@H]1C2 [Example 224, (4S)-N-(pyridin-3-yl)-7-(6-(trifluoromethyl)pyridin-3-yl)-3,4-dihydro-1,4-methanopyrido[2,3-b][1,4]diazepine-5(2H)-carboxamide] | – | – | B (EC1.5 1-25 μM) | A (Fold activation ≧150%)
Cc1ccc(-c2cc(C)c3c(n2)N(C(=O)Nc2ccccn2)[C@H]2CCN3C2)cn1 [Example 9, (4S)-9-methyl-7-(6-methylpyridin-3-yl)-N-(pyridin-2-yl)-3,4-dihydro-1,4-methanopyrido[2,3-b][1,4]diazepine-5(2H)-carboxamide] | B (EC1.5 1-25 μM) | A (Fold activation ≧150%) | – | –
Cc1cc(-c2nc3c(cc2Cl)N2CC[C@@H](C2)N3C(=O)Nc2ccnc(OC[C@H](O)CO)c2)ccn1 [Example 39, (4S)-8-chloro-N-(2-((R)-2,3-dihydroxypropoxy)pyridin-4-yl)-7-(2-methylpyridin-4-yl)-3,4-dihydro-1,4-methanopyrido[2,3-b][1,4]diazepine-5(2H)-carboxamide] | B (EC1.5 1-25 μM) | A (Fold activation ≧150%) | – | –
Cl.O=C(Nc1cc(OC[C@@H](O)CO)ccn1)N1c2nc(-c3cccc(C(F)(F)F)c3)c(Cl)cc2N2CC[C@H]1C2 [Example 64, (4S)-8-chloro-N-(4-((S)-2,3-dihydroxypropoxy)pyridin-2-yl)-7-(3-(trifluoromethyl)phenyl)-3,4-dihydro-1,4-methanopyrido[2,3-b][1,4]diazepine-5(2H)-carboxamide, Hydrochloride] | B (EC1.5 1-25 μM) | A (Fold activation ≧150%) | – | –
Cc1cc(-c2ccc3c(n2)N(C(=O)Nc2cc4cn[nH]c4cn2)[C@H]2CCN3C2)ccn1 [Example 130, (4S)-7-(2-methylpyridin-4-yl)-N-(1H-pyrazolo[3,4-c]pyridin-5-yl)-3,4-dihydro-1,4-methanopyrido[2,3-b][1,4]diazepine-5(2H)-carboxamide] | A (EC1.5<1 μM) | A (Fold activation ≧150%) | – | –
O=C(O)c1cc(-c2ccc3c(n2)N(C(=O)Nc2cnccn2)[C@H]2CCN3C2)ccn1 [Example 177, 4-((4S)-5-(pyrazin-2-ylcarbamoyl)-2,3,4,5-tetrahydro-1,4-methanopyrido[2,3-b][1,4]diazepin-7-yl)picolinic acid] | C (EC1.5>25 μM) | B (Fold Activation <150%) | – | –
